Laboratory results: patent US11865126B2, “Method for treating anxiety disorders, headache disorders, and eating disorders with psilocybin” (priority 2019, dated 2024)

What was measured:
healthy subjects = test: CANTAB global composite score; assay type: in vivo, human; details: 10 mg vs placebo, Day 7
Description: The following list of outcome measures are non-exhaustive. • a. The short-term change from Baseline (Day −1 [Visit 2]) to Day 7 (Visit 5) in cognitive measures of attention, spatial and working memory and executive function was measured by a composite score of the CANTAB Panel (Spatial Working Memory [SWM], Rapid Visual Information Processing [RVP], Paired Associates Learning [PAL]). • b. The short-term change from Baseline (Day −1 [Visit 2]) to Day 7 (Visit 5) in Social Cognition Panel scales (Pictorial Empathy Test [PET], Reading the Mind in the Eyes Test [RMET], Toronto Empathy Questionnaire [TEQ], Social Value Orientation [SVO], Scale of Social Responsibility [SSR]). • c. The change from Baseline (Day −1 [Visit 2]) to Day 28 (Visit 6) in cognitive measures of attention, spatial and working memory and executive function as measured by a composite score of the CANTAB Panel (SWM, RVP, PAL). • d. […] Dose-related differences between cognitive effects of psilocybin at Baseline (Day −1 [Visit 2]), Day 7 (Visit 5) and Day 28 (Visit 6), as measured by a composite score of the CANTAB Panel (SWM, RVP, PAL). • f. Dose-related differences between psychological effects of psilocybin at Baseline (Day −1 [Visit 2]), Day 7 (Visit 5) and Day 84 (Visit 7), as measured by Social Cognition Panel scales (PET, RMET, TEQ, SVO, SSR). • g. […]

[1] = test system: subjects with chronic cluster headaches (CCH); test: Chronic cluster headaches study (headache logs); assay type: in vivo, human; details: 0.14 mg/kg perorally x3; same subject
From the text: The study took place over a 10 week period which consisted of a baseline observation period, 3 psilocybin sessions, and a follow-up period in subjects with CCH (FIG. 27). Throughout the course of the study, subjects completed questionnaires and headache logs in order to access headache frequency, duration, and severity.
Before the beginning of the study, subjects taking prophylactic medication underwent a 2 week wash-out period to eliminate medication. Subjects then began a baseline observation period lasting 4 weeks during which the subjects received a functional MRI (magnetic resonance imaging) scan. After the observation period, subjects were perorally administered their first dose of 0.14 mg/kg psilocybin. Blood samples were collected during the initial dosing session to establish psilocin plasma concentrations. Over the next two weeks, subjects were administered two additional doses of psilocybin with each dose administered one week apart. The last psilocybin dose was followed by 4 weeks of observation that included a functional MRI scan one week after the last psilocybin dose. Subjects were also contacted 6 and 12 months after the last psilocybin dose to gain information about the duration of potential remission periods. All regular acute treatments were permitted during the study period and recorded in the headache diary. […]

Structure (SMILES): CN(C)CCc1c[nH]c2cccc(OP(=O)(O)O)c12 [psilocybin]
- CANTAB global composite score, effect size (healthy subjects): 0.53
- Cluster headache with pain greater than normal [1]: at least one very painful cluster headache
